Assay results reported in patent US20140315972A1, “RS)-2-(2-oxo-4-phenylpyrrolidin-1-yl)acetamide compound having modulatory activity with a commensurate effect, pharmaceutical substance (variants) and its application, composition (variants) thereof” (priority 2011, published 2014).
Marks after values point to notes of the source that are not given here.

Tests used:
Assay type in all cases: in vivo
rats [1] = assay: Hypotensive activity in rats (cannula in carotid artery); conditions: adult rats; i.p. and intragastric 50-100 mg/kg; one hour after administration
Method: Study of the effect of Phenotropil on cerebral blood flow, systemic blood pressure (BP) and the nervous regulation of blood circulation was made on 6 anesthetized cats under general anesthesia (urethane+chloralose). Phenotropil was administered intravenously at a dose of 50 mg/kg with distilled water; the baseline state of each animal prior to drug administration served as control. Cerebral blood flow was recorded in the common carotid artery (CCA) by an electromagnetic meter. The nervous regulation of cerebral circulation was judged by the vasomotor pressor reflex (VPR). The results of the experiment show (Table 6.1) that the racemic compound causes a moderate increase in cerebral blood flow in anesthetized animals. The cerebrovascular effect is accompanied by vascular hypotension with manifestation of oppression of the vasomotor reflex. The biphasic behaviour of SBP is consistent with the pattern of the effect on TSIP under no abnormalities with stabilization of the normotonic state. At intraperitoneal and intragastric administration of Phenotropil (25-300 mg/kg) to white outbred adult rats of both sexes, hypotensive activity (by blood method through the cannula connected to the carotid artery) was manifested one hour after administration at doses of 50-100 mg/kg and was in average 13%±2.85, while with increasing doses this effect disappears. […]

rats [2] = assay: Ischemic stroke (middle cerebral artery occlusion), McGrow scale
Text: The stroke condition was simulated in male rats (270-320 g) at a local cerebral hemorrhage, as a hemorrhagic stroke (intracerebral post-traumatic hematoma) by the method of A. N. Makarenko et al (1990) and at cerebral ischemia with distal occlusion of the middle cerebral artery (Chen S. T., Hsu C. Y., Hogan E. L., Maricq H., Balentine J. D. A model of focal ischemic stroke in the rat reproducible extensive cortical infarction//Stroke.—1989, V. 17, No 4, p. 738-743) as an ischemic stroke. Phenotropil was injected intraperitoneally at hemorrhagic stroke at 100 mg/kg immediately after surgery, and one hour before and two hours after the surgery (at doses of 100, 200 and 300 mg/kg) at ischemic stroke. Control animals were treated adequately with distilled water.

mice = assay: Acute toxicity, single intraperitoneal injection in male mice; conditions: male mice 18-24 g; single i.p.
Method: Tables 2, 2.1 and 2.2 present the results of acute toxicity studies of the Compounds with active substance content in at least white outbred male mice (body weight 18-24 g) and white outbred rats 30-35 days of age, of both sexes with a single dose. Calculation of toxic doses was made using the Wilcoxon and Litchfield method. Observations were made over 24 hours and 14 days after a single dose.
LD50 in rat pups after intragastric administration was not found. Intragastric administration to rat pups of doses of more than 1000 mg/kg is technically impossible due to the small volume of the stomach (Table 2.2).

HSP32 = HSP32 level in brain structures (Western blot); conditions: Wistar rats, no Ns
[3] = 100 mg/kg i.p. after MCAO, first day
[4] = 100 mg/kg i.p. after MCAO, second day
[5] = 100 mg/kg i.p. after MCAO, third day
[6] = 100 mg/kg i.p. before MCAO, first day
[7] = 100 mg/kg i.p. before MCAO, second day
[8] = 100 mg/kg i.p. before MCAO, third day
[9] = 200 mg/kg i.p. after MCAO, first day
[10] = 200 mg/kg i.p. after MCAO, second day
[11] = 200 mg/kg i.p. after MCAO, third day
[12] = 200 mg/kg i.p. before MCAO, first day
[13] = 200 mg/kg i.p. before MCAO, second day
[14] = 200 mg/kg i.p. before MCAO, third day
[15] = 300 mg/kg i.p. after MCAO, first day
[16] = 300 mg/kg i.p. after MCAO, second day
[17] = 300 mg/kg i.p. after MCAO, third day
[18] = 300 mg/kg i.p. before MCAO, first day
[19] = 300 mg/kg i.p. before MCAO, second day
[20] = 300 mg/kg i.p. before MCAO, third day

NC(=O)CN1CC(c2ccccc2)CC1=O (racemic) [Compound 1, (RS)-2-(2-oxo-4-phenylpyrrolidine-1-yl)acetamide]
4*: animals (out of 10) with lethargy, slowness of functions (rats [2]; [3]) | animals (out of 10) with lethargy, slowness of functions (rats [2]; [9]) | animals (out of 10) with lethargy, slowness of functions (rats [2]; [15])
3*: animals (out of 10) with lethargy, slowness of functions (rats [2]; [4]) | animals (out of 10) with lethargy, slowness of functions (rats [2]; [10]) | animals (out of 10) with lethargy, slowness of functions (rats [2]; [12]) | animals (out of 10) with tremor (rats [2]; [12]) | animals (out of 10) with tremor (rats [2]; [15])
1*: animals (out of 10) with lethargy, slowness of functions (rats [2]; [7]) | animals (out of 10) with lethargy, slowness of functions (rats [2]; [8]) | animals (out of 10) with lethargy, slowness of functions (rats [2]; [11]) | animals (out of 10) with lethargy, slowness of functions (rats [2]; [17]) | animals (out of 10) with lethargy, slowness of functions (rats [2]; [19])
2*: animals (out of 10) with tremor (rats [2]; [3]) | animals (out of 10) with lethargy, slowness of functions (rats [2]; [5]) | animals (out of 10) with lethargy, slowness of functions (rats [2]; [6]) | animals (out of 10) with tremor (rats [2]; [6]) | animals (out of 10) with tremor (rats [2]; [9]) | animals (out of 10) with lethargy, slowness of functions (rats [2]; [13]) | animals (out of 10) with lethargy, slowness of functions (rats [2]; [16]) | animals (out of 10) with lethargy, slowness of functions (rats [2]; [18]) | animals (out of 10) with tremor (rats [2]; [18])
0*: animals (out of 10) with circling movements (rats [2]; [3]) | animals (out of 10) with circling movements (rats [2]; [4]) | animals (out of 10) with tremor (rats [2]; [4]) | animals (out of 10) with circling movements (rats [2]; [6]) | animals (out of 10) with circling movements (rats [2]; [7]) | animals (out of 10) with tremor (rats [2]; [7]) | animals (out of 10) with circling movements (rats [2]; [9]) | animals (out of 10) with circling movements (rats [2]; [10]) | animals (out of 10) with tremor (rats [2]; [10]) | animals (out of 10) with circling movements (rats [2]; [12]) | animals (out of 10) with circling movements (rats [2]; [13]) | animals (out of 10) with tremor (rats [2]; [13]) | animals (out of 10) with lethargy, slowness of functions (rats [2]; [14]) | animals (out of 10) with circling movements (rats [2]; [15]) | animals (out of 10) with circling movements (rats [2]; [16]) | animals (out of 10) with tremor (rats [2]; [16]) | animals (out of 10) with circling movements (rats [2]; [18]) | animals (out of 10) with circling movements (rats [2]; [19]) | animals (out of 10) with tremor (rats [2]; [19]) | animals (out of 10) with lethargy, slowness of functions (rats [2]; [20])
17.7%: decrease of gene expression (heat shock protein) (HSP32; tested dose)
13%±2.85: hypotensive activity, average (rats [1])
3: animals (out of 10) with unilateral hemiptosis (rats [2]; [5]) | animals (out of 10) with unilateral hemiptosis (rats [2]; [8]) | animals (out of 10) with unilateral hemiptosis (rats [2]; [9]) | animals (out of 10) with unilateral hemiptosis (rats [2]; [11]) | animals (out of 10) with unilateral hemiptosis (rats [2]; [14]) | animals (out of 10) with unilateral hemiptosis (rats [2]; [15]) | animals (out of 10) with unilateral hemiptosis (rats [2]; [17]) | animals (out of 10) with unilateral hemiptosis (rats [2]; [20])
+68.8 * %: HSP32 Total vs outbred control (HSP32; 200 mg/kg single)
1042 (982.9-1102.0) mg/kg: LD50 (mice)
4: animals (out of 10) with unilateral hemiptosis (rats [2]; [3]) | animals (out of 10) with unilateral hemiptosis (rats [2]; [6]) | animals (out of 10) with unilateral hemiptosis (rats [2]; [10]) | animals (out of 10) with unilateral hemiptosis (rats [2]; [12]) | animals (out of 10) with unilateral hemiptosis (rats [2]; [13]) | animals (out of 10) with unilateral hemiptosis (rats [2]; [18])
5: animals (out of 10) with unilateral hemiptosis (rats [2]; [4]) | animals (out of 10) with unilateral hemiptosis (rats [2]; [7]) | animals (out of 10) with unilateral hemiptosis (rats [2]; [16]) | animals (out of 10) with unilateral hemiptosis (rats [2]; [19])
0: animals (out of 10) with circling movements (rats [2]; [5]) | animals (out of 10) with tremor (rats [2]; [5]) | animals (out of 10) with circling movements (rats [2]; [8]) | animals (out of 10) with tremor (rats [2]; [8]) | animals (out of 10) with circling movements (rats [2]; [11]) | animals (out of 10) with tremor (rats [2]; [11]) | animals (out of 10) with circling movements (rats [2]; [14]) | animals (out of 10) with tremor (rats [2]; [14]) | animals (out of 10) with circling movements (rats [2]; [17]) | animals (out of 10) with tremor (rats [2]; [17]) | animals (out of 10) with circling movements (rats [2]; [20]) | animals (out of 10) with tremor (rats [2]; [20])
